Test system: 253994-281-T-J1-PDC KRAS-mutant spheroids with HUVEC/MSC, viability
Assay: Anticancer human tumor 253994-281-T-J1-PDC patient-derived colorectal carcinoma cell line growth inhibition [KRAS2]
Details: for IC50: curve of first compound; for viability, T/C: stronger effect = lower value
Method in brief: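 KRAS-mutant tumor cells were grown as spheroids with HUVEC endothelial cells and human MSCs as stroma. Targeted agents were tested alone and with KRAS pathway inhibitors. Doses started at or near clinical Cmax, or 10 microM, descending half-log.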

[1] = second compound 0.1 µM, first compound 0.000316 µM
[2] = second compound 0.1 µM, first compound 0.001 µM
[3] = second compound 0.1 µM, first compound 0.00316 µM
[4] = second compound 0.1 µM, first compound 0.01 µM
[5] = second compound 0.1 µM, first compound 0.0316 µM
[6] = second compound 0.316 µM, first compound 0.000316 µM
[7] = second compound 0.316 µM, first compound 0.001 µM
[8] = second compound 0.316 µM, first compound 0.00316 µM
[9] = second compound 0.316 µM, first compound 0.01 µM
[10] = second compound 0.316 µM, first compound 0.0316 µM
[11] = second compound 1 µM, first compound 0.000316 µM
[12] = second compound 1 µM, first compound 0.001 µM
[13] = second compound 1 µM, first compound 0.00316 µM
[14] = second compound 1 µM, first compound 0.01 µM
[15] = second compound 1 µM, first compound 0.0316 µM
[16] = second compound 3.16 µM, first compound 0.000316 µM
[17] = second compound 3.16 µM, first compound 0.001 µM
[18] = second compound 3.16 µM, first compound 0.00316 µM
[19] = second compound 3.16 µM, first compound 0.01 µM
[20] = second compound 3.16 µM, first compound 0.0316 µM
[21] = second compound 10 µM, first compound 0.000316 µM
[22] = second compound 10 µM, first compound 0.001 µM
[23] = second compound 10 µM, first compound 0.00316 µM
[24] = second compound 10 µM, first compound 0.01 µM
[25] = second compound 10 µM, first compound 0.0316 µM
[26] = second compound 0.1 µM, first compound 0.1 µM
[27] = second compound 0.316 µM, first compound 0.1 µM
[28] = second compound 1 µM, first compound 0.1 µM
[29] = second compound 3.16 µM, first compound 0.1 µM
[30] = second compound 10 µM, first compound 0.1 µM
[31] = second compound 0.1 µM, first compound 0.316 µM
[32] = second compound 0.1 µM, first compound 1 µM
[33] = second compound 0.1 µM, first compound 3.16 µM
[34] = second compound 0.1 µM, first compound 10 µM
[35] = second compound 0.316 µM, first compound 0.316 µM
[36] = second compound 0.316 µM, first compound 1 µM
[37] = second compound 0.316 µM, first compound 3.16 µM
[38] = second compound 0.316 µM, first compound 10 µM
[39] = second compound 1 µM, first compound 0.316 µM
[40] = second compound 1 µM, first compound 1 µM
[41] = second compound 1 µM, first compound 3.16 µM
[42] = second compound 1 µM, first compound 10 µM
[43] = second compound 3.16 µM, first compound 0.316 µM
[44] = second compound 3.16 µM, first compound 1 µM
[45] = second compound 3.16 µM, first compound 3.16 µM
[46] = second compound 3.16 µM, first compound 10 µM
[47] = second compound 10 µM, first compound 0.316 µM
[48] = second compound 10 µM, first compound 1 µM
[49] = second compound 10 µM, first compound 3.16 µM
[50] = second compound 10 µM, first compound 10 µM
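Further: spheroids exposed to agents for seven days before readout.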
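Wherever viability, T/C is given: percent of DMSO vehicle control viability.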

SMILES: CC(=O)Nc1cccc(-n2c(=O)n(C3CC3)c(=O)c3c(Nc4ccc(I)cc4F)n(C)c(=O)c(C)c32)c1 + COc1cc2nc(C)nc(NC(C)c3cc(N)cc(C(F)(F)F)c3)c2cc1OC1CCOC1
- IC50 (second compound 0.1 µM): 0.473 nM
- IC50 (second compound 0.316 µM): 0.318 nM
- IC50 (second compound 1 µM): 0.331 nM
- IC50 (second compound 3.16 µM): 0.154 nM
- IC50 (second compound 10 µM): 0.173 nM
- viability, T/C (second compound 0.1 µM, first compound 0.0001 µM): 82.8%
- viability, T/C [1]: 60.4%
- viability, T/C [2]: 30.9%
- viability, T/C [3]: 14.4%
- viability, T/C [4]: 10.5%
- viability, T/C [5]: 5.47%
- viability, T/C (second compound 0.316 µM, first compound 0.0001 µM): 68%
- viability, T/C [6]: 50.7%
- viability, T/C [7]: 27.9%
- viability, T/C [8]: 14.8%
- viability, T/C [9]: 10.7%
- viability, T/C [10]: 5.1%
- viability, T/C (second compound 1 µM, first compound 0.0001 µM): 59.9%
- viability, T/C [11]: 51.7%
- viability, T/C [12]: 23.5%
- viability, T/C [13]: 11.6%
- viability, T/C [14]: 9.28%
- viability, T/C [15]: 4.8%
- viability, T/C (second compound 3.16 µM, first compound 0.0001 µM): 59.7%
- viability, T/C [16]: 34%
- viability, T/C [17]: 20.2%
- viability, T/C [18]: 10.6%
- viability, T/C [19]: 8.21%
- viability, T/C [20]: 4.13%
- viability, T/C (second compound 10 µM, first compound 0.0001 µM): 74.6%
- viability, T/C [21]: 21.5%
- viability, T/C [22]: 13.6%
- viability, T/C [23]: 8.98%
- viability, T/C [24]: 5.81%
- viability, T/C [25]: 2.33%

SMILES: CN(C)C/C=C/C(=O)Nc1cc2c(Nc3ccc(F)c(Cl)c3)ncnc2cc1O[C@H]1CCOC1 + COc1cc2nc(C)nc(NC(C)c3cc(N)cc(C(F)(F)F)c3)c2cc1OC1CCOC1
- IC50 (second compound 0.1 µM): > 100 nM
- IC50 (second compound 0.316 µM): > 100 nM
- IC50 (second compound 1 µM): > 100 nM
- IC50 (second compound 3.16 µM): > 100 nM
- IC50 (second compound 10 µM): > 100 nM
- viability, T/C [1]: 100%
- viability, T/C [2]: 98.2%
- viability, T/C [3]: 108%
- viability, T/C [4]: 85.8%
- viability, T/C [5]: 90%
- viability, T/C [26]: 67.7%
- viability, T/C [6]: 86.3%
- viability, T/C [7]: 97.8%
- viability, T/C [8]: 86.8%
- viability, T/C [9]: 81.5%
- viability, T/C [10]: 73.5%
- viability, T/C [27]: 57.8%
- viability, T/C [11]: 84.4%
- viability, T/C [12]: 88.7%
- viability, T/C [13]: 116%
- viability, T/C [14]: 90%
- viability, T/C [15]: 91.2%
- viability, T/C [28]: 69.8%
- viability, T/C [16]: 94.8%
- viability, T/C [17]: 87.4%
- viability, T/C [18]: 81.3%
- viability, T/C [19]: 86.8%
- viability, T/C [20]: 61.2%
- viability, T/C [29]: 55.2%
- viability, T/C [21]: 83.5%
- viability, T/C [22]: 84.1%
- viability, T/C [23]: 82.9%
- viability, T/C [24]: 79.2%
- viability, T/C [25]: 68.8%
- viability, T/C [30]: 54.5%

SMILES: COC(=O)c1ccc2c(C(=Nc3ccc(N(C)C(=O)CN4CCN(C)CC4)cc3)c3ccccc3)c(O)[nH]c2c1 + COc1cc2nc(C)nc(NC(C)c3cc(N)cc(C(F)(F)F)c3)c2cc1OC1CCOC1
- IC50 (second compound 0.1 µM): 5280 nM
- IC50 (second compound 0.316 µM): 5430 nM
- IC50 (second compound 1 µM): 4650 nM
- IC50 (second compound 3.16 µM): 2290 nM
- IC50 (second compound 10 µM): 721 nM
- viability, T/C [5]: 100%
- viability, T/C [26]: 103%
- viability, T/C [31]: 103%
- viability, T/C [32]: 85.1%
- viability, T/C [33]: 85.6%
- viability, T/C [34]: 9.83%
- viability, T/C [10]: 93.6%
- viability, T/C [27]: 75%
- viability, T/C [35]: 79.2%
- viability, T/C [36]: 91.6%
- viability, T/C [37]: 74.2%
- viability, T/C [38]: 22.8%
- viability, T/C [15]: 71.9%
- viability, T/C [28]: 71.6%
- viability, T/C [39]: 73.1%
- viability, T/C [40]: 85.1%
- viability, T/C [41]: 71.3%
- viability, T/C [42]: 7.12%
- viability, T/C [20]: 73.4%
- viability, T/C [29]: 75.4%
- viability, T/C [43]: 84.4%
- viability, T/C [44]: 74.5%
- viability, T/C [45]: 40.2%
- viability, T/C [46]: 0.2%
- viability, T/C [25]: 68.6%
- viability, T/C [30]: 79.1%
- viability, T/C [47]: 48.6%
- viability, T/C [48]: 54.4%
- viability, T/C [49]: 12.4%
- viability, T/C [50]: 0.21%

SMILES: O=C(c1cc(Cc2n[nH]c(=O)c3ccccc23)ccc1F)N1CCN(C(=O)C2CC2)CC1 + COc1cc2nc(C)nc(NC(C)c3cc(N)cc(C(F)(F)F)c3)c2cc1OC1CCOC1
- IC50 (second compound 0.1 µM): > 10000 nM
- IC50 (second compound 0.316 µM): > 10000 nM
- IC50 (second compound 1 µM): > 10000 nM
- IC50 (second compound 3.16 µM): > 10000 nM
- IC50 (second compound 10 µM): > 10000 nM
- viability, T/C [5]: 86.4%
- viability, T/C [26]: 88.5%
- viability, T/C [31]: 85.3%
- viability, T/C [32]: 91.2%
- viability, T/C [33]: 96.1%
- viability, T/C [34]: 106%
- viability, T/C [10]: 92.3%
- viability, T/C [27]: 82.5%
- viability, T/C [35]: 81.1%
- viability, T/C [36]: 94.3%
- viability, T/C [37]: 90.7%
- viability, T/C [38]: 68.6%
- viability, T/C [15]: 102%
- viability, T/C [28]: 87.7%
- viability, T/C [39]: 92.4%
- viability, T/C [40]: 103%
- viability, T/C [41]: 115%
- viability, T/C [42]: 90.2%
- viability, T/C [20]: 92.7%
- viability, T/C [29]: 90.5%
- viability, T/C [43]: 89.3%
- viability, T/C [44]: 129%
- viability, T/C [45]: 74.5%
- viability, T/C [46]: 86.6%
- viability, T/C [25]: 93.6%
- viability, T/C [30]: 98.7%
- viability, T/C [47]: 90.8%
- viability, T/C [48]: 84.3%
- viability, T/C [49]: 99%
- viability, T/C [50]: 106%

From PubChem BioAssay AID1963874 (Molecular Pharmacology Branch, DTP, NCI, 2024)
